The numbers were not newly measured in patent publication US10654893B2, “Self-assembling peptide compositions” (3-D MATRIX, LTD., priority 2014, dated 2020), which cites them from elsewhere.

One may read the pKa as the pH at which an ionisable group is half protonated.

The conditions of this data set: cited from earlier work.

On to `N[C@@H](CC(=O)O)C(=O)O` [aspartic acid], for which the pKa is 3.71.
With `N[C@@H](CCC(=O)O)C(=O)O` [glutamic acid], the pKa was 4.15.
